# Source: ChEMBL document CHEMBL1240509, “Modulators of the hedgehog signaling pathway” (Bioorg Med Chem, 2010)
# pEC50, pIC50: −log10 of the molar value.
# Experiment: Agonist activity at hedgehog receptor
# Type: functional
# Settings: not given; call rule not given here
row,Structure (SMILES),pEC50
1,CN[C@H]1CC[C@H](N(Cc2cccc(-c3ccncc3)c2)C(=O)c2sc3ccccc3c2Cl)CC1,5.52
2,CC(C)CCC[C@](C)(O)[C@H]1CC[C@H]2[C@@H]3CC=C4C[C@@H](O)CC[C@]4(C)[C@H]3CC[C@@]21C,7.00
3,CC(C)CC[C@H](O)[C@@H](C)[C@H]1CC[C@H]2[C@@H]3CC=C4C[C@@H](O)CC[C@]4(C)[C@H]3CC[C@]12C,6.70
4,CC(C)[C@@H](O)CC[C@@H](C)[C@H]1CC[C@H]2[C@@H]3CC=C4C[C@@H](O)CC[C@]4(C)[C@H]3CC[C@]12C,5.52
5,C[C@H](CCCC(C)(C)O)[C@H]1CC[C@H]2[C@@H]3CC=C4C[C@@H](O)CC[C@]4(C)[C@H]3CC[C@]12C,6.00
6,c1ccc2c(Oc3nc(Nc4ccc(N5CCOCC5)cc4)c4ncn(C5CCCCC5)c4n3)cccc2c1 [PURMORPHAMINE],6.00

# Experiment: Inhibition of hedgehog receptor mediated Gli transcription
# Settings: not given
row,Structure (SMILES),EC50
1,Cc1c([C@H](C)[C@@H]2NC[C@@H](C)C[C@H]2O)ccc2c1C[C@H]1[C@H]2CC=C2C[C@@H](O)CC[C@@]21C [VERATRAMINE],Not Active

# Same assay, conditions: read-out: EC50
row,Structure (SMILES),pEC50
1,CC1=C2C(=O)[C@H]3[C@@H](CC=C4C[C@@H](O)CC[C@@]43C)[C@@H]2CC[C@]12O[C@@H]1C[C@H](C)CN[C@H]1[C@H]2C [JERVINE],6.30
2,CC1=C2C[C@H]3[C@@H](CC=C4C[C@@H](O[C@@H]5O[C@H](CO)[C@@H](O)[C@H](O)[C@H]5O)CC[C@@]43C)[C@@H]2CC[C@]12O[C@@H]1C[C@H](C)CN[C@H]1[C@H]2C [CYCLOPOSINE],< 6.15
3,CC1=C2C[C@H]3[C@@H](CC=C4C[C@@H](O)CC[C@@]43C)[C@@H]2CC[C@]12O[C@@H]1C[C@H](C)CN[C@H]1[C@H]2C [CYCLOPAMINE],6.52

# Experiment: Inhibition of hedgehog receptor mediated Ptch1 transcription
# Settings: not given
row,Structure (SMILES),pEC50
1,CC1=C2C[C@H]3[C@@H](CC=C4C[C@@H](O)CC[C@@]43C)[C@@H]2CC[C@]12O[C@@H]1C[C@H](C)CN[C@H]1[C@H]2C [CYCLOPAMINE],6.52

# Experiment: Antagonist activity at hedgehog receptor
# Type: functional
# Settings: not given
row,Structure (SMILES),pIC50
1,CCOc1cc(C(=O)Nc2ccc(Cl)c(-c3nc4ccccc4[nH]3)c2)cc(OCC)c1OCC,7.52
2,CCCN[C@H]1CC[C@H](N(Cc2cccc(-c3ccncc3)c2)C(=O)c2sc3ccccc3c2Cl)CC1,7.70
3,"CC1=C2C[C@H]3[C@@H](CCC4=CC(=O)CC[C@@]43C)[C@@H]2CC[C@@]2(C1)O[C@@H]1C[C@H](C)CNC1[C@H]2C (single isomer, unassigned)",6.70
4,CC1=C2C[C@H]3[C@@H](CC[C@@H]4CNC(=O)CC[C@@]43C)[C@@H]2CC[C@@]2(C1)O[C@@H]1C[C@H](C)CN[C@@H]1[C@H]2C,7.52
5,CC1=C2C[C@H]3[C@@H](CC[C@@H]4Cc5n[nH]cc5C[C@@]43C)[C@@H]2CC[C@@]2(C1)O[C@@H]1C[C@H](C)CN[C@@H]1[C@H]2C,8.00
6,CC1=C2C[C@H]3[C@@H](CC[C@@H]4C[C@H](NS(C)(=O)=O)CC[C@@]43C)[C@@H]2CC[C@@]2(C1)O[C@@H]1C[C@H](C)CN[C@@H]1[C@H]2C,8.15
7,c1cc(-c2sc(-c3ccncc3)c(-c3ccncc3)c2-c2ccncc2)ccn1,5.30
8,CCC(C)n1ncn(-c2ccc(N3CCN(c4ccc(OCC5COC(Cn6cncn6)(c6ccc(Cl)cc6Cl)O5)cc4)CC3)cc2)c1=O (stereo not given) [ITRACONAZOLE],6.10
9,O=C(C[C@@H]1C/C=C/CCC(=O)O[C@H](c2ccccc2)CNC1=O)NCc1ccc(Cl)cc1 [ROBOTNIKININ],5.51
10,CC1=C2C[C@H]3[C@@H](CC=C4CC(=O)CC[C@@]43C)[C@@H]2CC[C@]12O[C@@H]1C[C@H](C)CN(CCNC(=O)CCCCCNC(=O)CCc3ccccc3)[C@H]1[C@H]2C,7.70
11,CN(C)c1ccccc1CN1CCCN(Cc2ccccc2N(C)C)C1c1ccncc1,5.30
12,C[C@@]12C[C@H]3OC(=O)[C@@H]1CO[C@]14O[C@]5([C@H]2C1=O)[C@@](O)(CC[C@H]1[C@H]4C[C@H]2O[C@]24CC=CC(=O)[C@]14C)C(=O)O[C@@]35C [PHYSALIN F],6.18
13,COCCOC(=O)C1=C(C)NC2=C(C(=O)CC(c3ccccc3OC)C2)C1c1cccc(O)c1 (stereo not given),5.82
14,CS(=O)(=O)c1ccc(C(=O)Nc2ccc(Cl)c(-c3ccccn3)c2)c(Cl)c1 [VISMODEGIB],7.89
